The text below walks through data of patent US8815893B2, “Hetarylaminonaphthyridines” (Merck Patent GmbH, priority 2010, dated 2014).

Structures are written as SMILES.

The target of the test is T1, GST-ALK5 (Homo sapiens, UniProt P36897).
T1 sequence (P36897 34-503): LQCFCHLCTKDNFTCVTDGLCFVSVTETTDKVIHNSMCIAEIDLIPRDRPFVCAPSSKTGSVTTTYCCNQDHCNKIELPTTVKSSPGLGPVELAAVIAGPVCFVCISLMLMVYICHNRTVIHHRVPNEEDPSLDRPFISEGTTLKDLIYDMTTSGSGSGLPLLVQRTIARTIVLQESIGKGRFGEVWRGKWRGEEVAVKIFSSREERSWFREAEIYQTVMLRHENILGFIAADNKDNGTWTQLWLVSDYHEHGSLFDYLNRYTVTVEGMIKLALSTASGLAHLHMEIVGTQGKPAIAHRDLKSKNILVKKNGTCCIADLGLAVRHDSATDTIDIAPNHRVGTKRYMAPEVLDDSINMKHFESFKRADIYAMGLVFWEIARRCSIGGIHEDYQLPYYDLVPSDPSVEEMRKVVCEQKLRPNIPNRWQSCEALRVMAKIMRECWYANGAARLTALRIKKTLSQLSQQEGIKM
Kind of test: In-vitro (enzyme) kinase assay, 384-well flashplate (example 14). The test is classed as biochemical. As to conditions: GST-ALK5, GST-SMAD2 substrate, 33P-ATP flashplate, 30° C. 45 min; IC50 classes; read-out: TβR activity (example 14). Here is the method:
In-Vitro (Enzyme) Assay for Determination of the Efficacy of Inhibitors of the Inhibition of TGF-Beta-Mediated Effects
The kinase assay was carried out as 384-well flashplate assay. 31.2 nM of GST-ALK5, 439 nM of GST-SMAD2 and 3 mM of ATP (with 0.3 μCi of ^33P-ATP/well) were incubated in a total volume of 35 μl (20 mM of HEPES, 10 mM of MgCl2, 5 mM of MnCl2, 1 mM of DTT, 0.1% of BSA, pH 7.4) without or with test substance (5-10 concentrations) at 30° C. for 45 min. The reaction was stopped using 25 μl of 200 mM EDTA solution, filtered with suction at room temperature after 30 min, and the wells were washed with 3 times 100 μl of 0.9% NaCl solution. Radioactivity was measured in the TopCount. The IC50 values were calculated using RS1. Above and below, all temperatures were indicated in ° C.
With `Fc1ccc(Cl)cc1-c1cc(Nc2ccncc2)c2cccnc2n1` [compound 01], the IC50 was less than 100 nM.

For `Nc1cc(Nc2cc(-c3cc(Cl)ccc3F)nc3ncccc23)ncn1` [compound 02], the IC50 was less than 100 nM.

For the molecule `Cc1cccc(-c2cc(Nc3ccncc3)c3cccnc3n2)n1` [compound 03], the IC50 was less than 100 nM.

Regarding `Fc1ccc(Cl)cc1-c1cc(Nc2ccncc2OCCN2CCOCC2)c2cccnc2n1` [compound 04], the IC50 was in the range of 100 to 1000 nM.

As to `Fc1ccc(Cl)cc1-c1cc(Nc2ccncn2)c2cccnc2n1` [compound 05], the IC50 is less than 100 nM.

For `Fc1ccc(-c2cc(Nc3ccncc3)c3cccnc3n2)cc1` [compound 06], the IC50 was less than 100 nM.

As for `CCOc1cc(Nc2cc(-c3cc(Cl)ccc3F)nc3ncccc23)ccn1` [compound 07], the IC50 is 100 to 1000 nM.

In the case of `CN1CCN(c2cc(Nc3cc(-c4cc(Cl)ccc4F)nc4ncccc34)ccn2)CC1` [compound 08], the IC50 was 1000 to 10000 nM.

`OCCOc1cnccc1Nc1cc(-c2cc(Cl)ccc2F)nc2ncccc12` [compound 09]: the IC50 was less than 100 nM.

`Fc1ccccc1-c1cc(Nc2ccncc2)c2cccnc2n1` [compound 10]: the IC50 is less than 100 nM.

With `Clc1cccc(-c2cc(Nc3ccncc3)c3cccnc3n2)c1` [compound 11], the IC50 is less than 100 nM.

`FC(F)(F)c1cccc(-c2cc(Nc3ccncc3)c3cccnc3n2)c1` [compound 12]: the IC50 is less than 100 nM.

Regarding `Fc1ccc(F)c(-c2cc(Nc3ccncc3)c3cccnc3n2)c1` [compound 13], the IC50 is less than 100 nM.

As for `Fc1ccc(Cl)cc1-c1cc(-n2ccc3cnccc32)c2cccnc2n1` [compound 14], the IC50 is less than 100 nM.

Regarding `COCCOc1cnccc1Nc1cc(-c2cc(Cl)ccc2F)nc2ncccc12` [compound 15], the IC50 is less than 100 nM.

Regarding `Fc1ccc(C(F)(F)F)cc1-c1cc(Nc2ccncc2)c2cccnc2n1` [compound 16], the IC50 is less than 100 nM.

`Fc1ccccc1-c1cc(Nc2ccncn2)c2cccnc2n1` [compound 17]: the IC50 is less than 100 nM.

As for `Fc1ccc(Cl)cc1-c1cc(Nc2ncncn2)c2cccnc2n1` [compound 18], the IC50 was less than 100 nM.

As to `Cn1cc(-c2cc(Nc3ccncc3)c3cccnc3n2)cn1` [compound 19], the IC50 is 1000 to 10000 nM.

Take `OCc1cnccc1Nc1cc(-c2cc(Cl)ccc2F)nc2ncccc12` [compound 20]: the IC50 is less than 100 nM.

On to `Fc1ccc(C(F)(F)F)cc1-c1cc(Nc2ccncn2)c2cccnc2n1` [compound 21], for which the IC50 is less than 100 nM.

For the molecule `Nc1cnccc1Nc1cc(-c2cc(Cl)ccc2F)nc2ncccc12` [compound 22], the IC50 is less than 100 nM.

In the case of `CN(C)CCOc1cnccc1Nc1cc(-c2cc(Cl)ccc2F)nc2ncccc12` [compound 23], the IC50 was less than 100 nM.

In the case of `c1cnc2nc(-c3cnccn3)cc(Nc3ccncc3)c2c1` [compound 24], the IC50 lay in the range of 1000 to 10000 nM.

Regarding `c1ccc(-c2cc(Nc3ccncc3)c3cccnc3n2)nc1` [compound 25], the IC50 is less than 100 nM.

For `COCCOc1cnccc1Nc1cc(-c2cc(C(F)(F)F)ccc2F)nc2ncccc12` [compound 26], the IC50 is less than 100 nM.

Take `CN1CCN(c2ccc(Nc3cc(Nc4cc(-c5cc(Cl)ccc5F)nc5ncccc45)ccn3)cc2)CC1` [compound 27]: the IC50 was 100 to 1000 nM.

In the case of `Cc1ccn(-c2cc(Nc3ccncc3)c3cccnc3n2)n1` [compound 28], the IC50 was less than 100 nM.

`O=c1[nH]c2cnccc2n1-c1cc(-c2cc(Cl)ccc2F)nc2ncccc12` [compound 29]: the IC50 was less than 100 nM.

Take `Fc1ccc(C(F)(F)F)cc1-c1cc(-n2ccc3cnccc32)c2cccnc2n1` [compound 30]: the IC50 is less than 100 nM.

With `c1cnc2nc(-c3cn[nH]c3)cc(Nc3ccncc3)c2c1` [compound 31], the IC50 lay within 100 to 1000 nM.

`Nc1cc(Nc2cc(-c3cc(C(F)(F)F)ccc3F)nc3ncccc23)ncn1` [compound 32]: the IC50 was less than 100 nM.

For the molecule `CN(C)CCCOc1cnccc1Nc1cc(-c2cc(Cl)ccc2F)nc2ncccc12` [compound 33], the IC50 was less than 100 nM.

With `Fc1ccc(Cl)cc1-c1cc(Nc2ccncc2OCCCN2CCOCC2)c2cccnc2n1` [compound 34], the IC50 is less than 100 nM.

Take `Cn1ccc(-c2cc(Nc3ccncc3)c3cccnc3n2)n1` [compound 35]: the IC50 is 100 to 1000 nM.

`Cn1nccc1-c1cc(Nc2ccncc2)c2cccnc2n1` [compound 36]: the IC50 was 1000 to 10000 nM.

For the molecule `OCc1cnccc1Nc1cc(-c2cc(C(F)(F)F)ccc2F)nc2ncccc12` [compound 37], the IC50 was less than 100 nM.

In the case of `Fc1ccc(OC(F)(F)F)cc1-c1cc(Nc2ccncc2)c2cccnc2n1` [compound 38], the IC50 was less than 100 nM.

As to `Fc1ccc(Cl)cc1-c1cc(Nc2ccnc(Nc3cc(-c4cc(Cl)ccc4F)nc4ncccc34)n2)c2cccnc2n1` [compound 39], the IC50 fell in the range of 1000 to 10000 nM.

Turning to `COC(=O)c1cnccc1Nc1cc(-c2cc(Cl)ccc2F)nc2ncccc12` [compound 40], the IC50 was less than 100 nM.

For `N#Cc1cncnc1Nc1cc(-c2cc(Cl)ccc2F)nc2ncccc12` [compound 41], the IC50 is less than 100 nM.

As for `CNC(=O)c1cnccc1Nc1cc(-c2cc(Cl)ccc2F)nc2ncccc12` [compound 42], the IC50 was less than 100 nM.

For the molecule `Fc1cc(F)c(-c2cc(Nc3ccncc3)c3cccnc3n2)cc1F` [compound 43], the IC50 is less than 100 nM.

`Fc1ccc(C(F)(F)F)cc1-c1cc(Nc2ncncn2)c2cccnc2n1` [compound 44]: the IC50 is less than 100 nM.

For `CCN(CCOc1cnccc1Nc1cc(-c2cc(Cl)ccc2F)nc2ncccc12)C(=O)OC(C)(C)C` [compound 45], the IC50 lay within 100 to 1000 nM.

As for `CCNCCOc1cnccc1Nc1cc(-c2cc(Cl)ccc2F)nc2ncccc12` [compound 46], the IC50 lay within 100 to 1000 nM.

On to `CN1CCC(COc2cnccc2Nc2cc(-c3cc(Cl)ccc3F)nc3ncccc23)CC1` [compound 47], for which the IC50 was less than 100 nM.

Take `COC(=O)c1cc(Nc2cc(-c3cc(Cl)ccc3F)nc3ncccc23)ccn1` [compound 48]: the IC50 is less than 100 nM.

On to `Cc1cccc(-c2cc(Nc3ccncn3)c3cccnc3n2)n1` [compound 49], for which the IC50 was less than 100 nM.

In the case of `Fc1cc(F)c(-c2cc(Nc3ccncn3)c3cccnc3n2)cc1F` [compound 50], the IC50 is less than 100 nM.

`CC(C)(C)OC(=O)Nc1nccc(Nc2cc(-c3cc(Cl)ccc3F)nc3ncccc23)n1` [compound 51]: the IC50 is less than 100 nM.

Take `Nc1nccc(Nc2cc(-c3cc(Cl)ccc3F)nc3ncccc23)n1` [compound 52]: the IC50 was less than 100 nM.

In the case of `CNC(=O)c1cc(Nc2cc(-c3cc(Cl)ccc3F)nc3ncccc23)ccn1` [compound 53], the IC50 is less than 100 nM.

As for `Fc1ccc(Cl)cc1-c1cc(-n2ccc3cncnc32)c2cccnc2n1` [compound 54], the IC50 was less than 100 nM.

In the case of `Cc1cccc(-c2cc(Nc3cc(N)ncn3)c3cccnc3n2)n1` [compound 55], the IC50 was less than 100 nM.

For the molecule `Fc1ccc(Cl)cc1-c1cc(Oc2ccncc2)c2cccnc2n1` [compound 56], the IC50 is greater than 10000 nM.

For the molecule `Cc1cccc(-c2cc(-n3ccc4cnccc43)c3cccnc3n2)n1` [compound 57], the IC50 was less than 100 nM.

With `Fc1ccc(Cl)cc1-c1cc(Sc2ccncc2)c2cccnc2n1` [compound 58], the IC50 is less than 100 nM.

For the molecule `Cc1cccc(-c2cc(-n3ccc4cncnc43)c3cccnc3n2)n1` [compound 59], the IC50 was 100 to 1000 nM.

For the molecule `CCNC(=O)c1cnccc1Nc1cc(-c2cccc(C)n2)nc2ncccc12` [compound 60], the IC50 was less than 100 nM.

Take `N#Cc1ccccc1-c1cc(Nc2ccncc2)c2cccnc2n1` [compound 61]: the IC50 was in the range of 100 to 1000 nM.

Regarding `Fc1ccc(Cl)cc1-c1cc(Nc2ccnc(Cl)c2)c2cccnc2n1` [compound 62], the IC50 was less than 100 nM.

In the case of `O=C(O)c1cnccc1Nc1cc(-c2cc(Cl)ccc2F)nc2ncccc12` [compound 63], the IC50 was less than 100 nM.

As for `N#Cc1cnccc1Nc1cc(-c2cc(Cl)ccc2F)nc2ncccc12` [compound 65], the IC50 is less than 100 nM.

Take `CC(=O)Nc1cc(Nc2cc(-c3cc(Cl)ccc3F)nc3ncccc23)ccn1` [compound 67]: the IC50 is less than 100 nM.

Turning to `O=C(O)c1cc(Nc2cc(-c3cc(Cl)ccc3F)nc3ncccc23)ccn1` [compound 68], the IC50 lay in the range of 1000 to 10000 nM.

For `CC(C)C(=O)Nc1cc(Nc2cc(-c3cc(Cl)ccc3F)nc3ncccc23)ccn1` [compound 70], the IC50 was less than 100 nM.

As to `Cc1nn(-c2cc(-c3cc(Cl)ccc3F)nc3ncccc23)c2ccncc12` [compound 71], the IC50 was less than 100 nM.
